Data on one molecule can be found in article PMC11763264, “Antibacterial and Antifungal Activities of Linear and Cyclic Peptides Containing Arginine, Tryptophan, and Diphenylalanine” (Antibiotics, 2025).

Converted amounts (≈) assume the structure as drawn. Non-standard residues stand in square brackets, D forms with d. Residues, ends and D or L forms follow the SMILES beside them. Dip = N[C@H](C(=O)O)C(c1ccccc1)c1ccccc1

The test system of series [1] is A. fumigatus (Af-293). Description: microbe, parasite or virus in culture. Format: cell-based, Aspergillus fumigatus. The conditions noted are these: RPMI 1640 with 2% D-glucose, HEPES, 10^6 cells/mL, 24 and 48 h at 35 °C, no visible growth; triplicates, repeated twice. How it is done: The antifungal activity of all ten synthesized linear and cyclic peptides was evaluated against C. albicans (ATCC 60193), C. parapsilosis (ATCC 22019), and A. fumigatus (AF-293). Fluconazole and amphotericin B were used as positive controls for this study. The MIC was determined at concentrations in wells with no visible fungal growth.
A. fumigatus (Af-293) was cultured on Sabouraud dextrose agar (SDA) (Lot #3431660, Oxoid) for 48–72 h at 35 °C to obtain fresh and mature colonies which reached the proper sporulation then used to prepare the inoculum. The colonies were covered with Phosphate-Buffered Saline (PBS) containing 0.025% Tween-20, scraped from the plate, and carefully collected into a sterile tube. The suspension was centrifuged at 3000 RPM for 5 min after the separation between conidia and hyphae. The supernatant was discarded, and the pellet was resuspended in 5 mL of PBS.
Peptide concentrations of 50, 25, 12.5, 6.25, and 3.1 μg/mL were tested in triplicate. Each well of a 96-well plate was inoculated with the prepared inoculum suspension, which was diluted with RPMI 1640 medium containing L-glutamine, supplemented with 2% D-glucose, and the pH adjusted using HEPES buffer. The plates were incubated for 50 min at 35 °C to achieve a final cell concentration of 10^6 cells/mL. The control wells contained the same inoculum without any compound. The plates were then incubated for 24 and 48 h at 35 °C. Fungal growth was visualized, and the minimum inhibitory concentration (MIC) was determined as the lowest peptide concentration, where no growth was observed.

Series [2] has as its system Gram-positive and Gram-negative bacteria strains. Format: cell-based. Conditions: span over all bacterial strains tested; micro-broth dilution. The procedure:
(§1) The antibacterial activity of all ten synthesized linear and cyclic peptides was evaluated against MRSA (ATCC BAA-1556), S. aureus (ATCC 29213), E. faecium (ATCC 700221), S. pneumoniae (ATCC 51938), E. faecalis (ATCC 29212), B. subtilis (ATCC-6633), K. pneumoniae (ATCC BAA-1705), P. aeruginosa (ATCC 27883), and E. coli (ATCC 25922). Meropenem and daptomycin were used as positive controls for this study. Certain peptides are marked as “NT” (not tested) against specific bacterial strains based on initial screening data. […] The MIC was determined by micro-broth dilution protocol, where the minimal concentrations were determined to be in wells with no visible bacterial growth.
(§2) All bacterial experiments were carried out in a laminar flow hood (Labconco, Kansas City, MO, USA). The bacterial strains were cultured following the guidelines set by the Clinical Laboratory Standards Institute (CLSI). Antibacterial assays were performed using a standard microtiter dilution method as described in previous studies. The minimum inhibitory concentration (MIC) refers to the lowest peptide concentration that inhibits bacterial growth in wells with no visible bacterial growth. MIC was determined by micro-broth dilution. Bacteria were cultured overnight in 6 mL of Luria Broth (LB). […]

Series [3] relates to Gram-positive bacteria strains: MRSA, S. aureus, E. faecium, E. faecalis, S. pneumoniae, and B. subtilis. The class given is cell-based. Conditions: span over MRSA, micro-broth dilution. The procedure: as §1, §2
The conditions of series [4]: cited from earlier work. The source says: We hypothesized that these peptides can be used as a broad-spectrum antibiotic and antifungal agents by interacting with bacterial and fungal membranes. The head-to-tail cyclization and incorporation of unnatural amino acids could provide improved stability against degradation in the biological environment. […] For example, we have previously shown the plasma stability of [DipR]5. Approximately 15% degradation of [DipR]5 was observed within the first hour, but the rate of de ...

As to `N=C(N)NCCC[C@@H]1NC(=O)[C@H](C(c2ccccc2)c2ccccc2)NC(=O)[C@H](CCCNC(=N)N)NC(=O)[C@H](C(c2ccccc2)c2ccccc2)NC(=O)[C@H](CCCNC(=N)N)NC(=O)[C@H](C(c2ccccc2)c2ccccc2)NC(=O)[C@H](CCCNC(=N)N)NC(=O)[C@H](C(c2ccccc2)c2ccccc2)NC(=O)[C@H](CCCNC(=N)N)NC(=O)[C@H](C(c2ccccc2)c2ccccc2)NC1=O` [[DipR]5] (cyclo([Dip]R[Dip]R[Dip]R[Dip]R[Dip]R)), in series [1], the MIC amounted to 1.6 µM (≈ 3.04 µg/mL). Besides, the “MIC values against Gram-positive and Gram-negative bacteria strains” value in series [2] is 0.39 to 25 µM. In series [3], the “MIC values against Gram-positive bacteria strains” value is 0.39 to 6.3 µM. In series [4], the degradation in plasma result is reported as “Approximately 15%”.
